Source: publication PMC13266984 (Journal of medicinal chemistry, 2026)

How the values were obtained:
[1] = target: T1, OE19 (3A1) (Homo sapiens, UniProt P30838); test: Cellular ALDEFLUOR assay in OE19 cells (preferential ALDH3A1 expression)
T1 sequence (P30838 1-453): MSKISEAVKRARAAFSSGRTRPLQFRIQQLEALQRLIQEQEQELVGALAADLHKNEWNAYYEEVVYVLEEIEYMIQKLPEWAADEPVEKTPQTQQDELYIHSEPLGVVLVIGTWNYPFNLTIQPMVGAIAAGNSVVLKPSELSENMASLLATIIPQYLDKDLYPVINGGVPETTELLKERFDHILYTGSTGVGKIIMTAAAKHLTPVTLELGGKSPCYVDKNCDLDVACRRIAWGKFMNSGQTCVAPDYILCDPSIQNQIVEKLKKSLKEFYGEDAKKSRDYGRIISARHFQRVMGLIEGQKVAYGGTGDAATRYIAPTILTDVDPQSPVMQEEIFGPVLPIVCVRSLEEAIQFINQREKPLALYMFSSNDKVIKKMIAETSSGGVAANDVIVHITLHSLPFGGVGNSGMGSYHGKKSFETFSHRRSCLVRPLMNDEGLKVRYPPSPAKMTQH

[2] = target: T2, Human ALDH3A1 (Homo sapiens, UniProt P30838); test: ALDH3A1 biochemical assay (benzaldehyde/NADP+, diaphorase-resazurin readout, 1,536-well)
T2 sequence (P30838 1-453): T1 sequence (P30838 1-453)

[3] = Table S5, biochemical curve class
[4] = Table S1, primary screen, curve class
[5] = Table S2, in-house analogs, curve class

| AC50 [2] [µM] | Efficacy ([2]; Table S2, in-house analogs) | CC-v2 [2, 5] | SMILES | further results |
| --- | --- | --- | --- | --- |
| 0.0282 | – | – | O=C(NCc1ccc(C(F)(F)F)c(Cl)c1)c1csc(N2CCN(c3cccc(C(F)(F)F)c3)CC2)n1 [NCGC01407914-01] | AC50 [1]: 0.609 µM; Cell_Efficacy ([1]; Table S5, OE19 cells): -99.51; Cell_CC-v2 ([1]; Table S5, cellular curve class): -1.3; Efficacy ([2]; Table S5, biochemical): -95.28; CC-v2 [2, 3]: -1.1 |
| 0.355 | – | – | O=C(Nc1ccc(CNC(=O)c2csc(N3CCN(c4cccc(C(F)(F)F)c4)CC3)n2)cc1)c1ccc(F)cc1 [NCGC01407975-01] | AC50 [1]: 0.1 µM; Cell_Efficacy ([1]; Table S5, OE19 cells): -85.75; Cell_CC-v2 ([1]; Table S5, cellular curve class): -1.1; Efficacy ([2]; Table S5, biochemical): -39.06; CC-v2 [2, 3]: -1.2 |
| 0.0178 | – | – | O=C(NCc1cccc(Oc2ccccc2)c1)c1csc(N2CCN(c3cccc(C(F)(F)F)c3)CC2)n1 [NCGC01407978-01] | AC50 [1]: 1.53 µM; Cell_Efficacy ([1]; Table S5, OE19 cells): -119.85; Cell_CC-v2 ([1]; Table S5, cellular curve class): -2.1; Efficacy ([2]; Table S5, biochemical): -100.27; CC-v2 [2, 3]: -1.1 |
| 1.02 | – | – | Cc1cccc(CNC(=O)c2csc(N3CCN(c4ccccc4F)CC3)n2)c1 [NCGC01211127-01] | AC50 [1]: 4.95 µM; Cell_Efficacy ([1]; Table S4, OE19 cells): -89.89; Cell_CC-v2 ([1]; Table S4, cellular curve class): -1.1; Efficacy ([2]; Table S4, biochemical): -98.80; CC-v2 ([2]; Table S4, biochemical curve class): -1.1 |
| 0.447 | – | – | C[S+](=O)([O-])c1ccc(CNC(=O)c2csc(N3CCN(c4cccc(C(F)(F)F)c4)CC3)n2)cc1 [NCGC01407818-01] | AC50 [1]: 0.2 µM; Cell_Efficacy ([1]; Table S5, OE19 cells): -88.67; Cell_CC-v2 ([1]; Table S5, cellular curve class): -1.1; Efficacy ([2]; Table S5, biochemical): -62.88; CC-v2 [2, 3]: -1.2 |
| 35.5 | – | – | CC1(COCC2CC2)COc2ccc(C(=O)Nc3cccc([S+](C)(=O)[O-])c3)cc2N1 (stereo not drawn) [NCGC00416184-01] | Efficacy ([2]; Table S1, primary screen): -42.40; CC-v2 [2, 4]: -2.4 |
| 15.8 | -57.30 | -2.2 | O=C(NCc1ccncc1)c1csc(N2CCN(c3ccccc3F)CC2)n1 [NCGC00430720-01] | – |
| 17.8 | -40.76 | -2.2 | CN1CCOc2c(C(=O)NCCC(N)=O)cc(-c3ccc(CO)cc3)cc21 [NCGC00417044-01] | – |
| 3.16 | -51.19 | -1.2 | Cc1nn(Cc2ccccc2)c(C)c1[C@@H]1C=C[C@@H](NC(=O)c2ccco2)C1 [NCGC00397524-03] | – |
| 0.79 | -54.49 | -1.4 | CN1CCOc2c(C(=O)NCc3cccnc3)cc(-c3cnn(C)c3)cc21 [NCGC00417099-01] | – |
| 1.78 | -71.11 | -1.2 | O=C(NCc1ccccc1Cl)c1csc(N2CCN(c3ccc(F)cc3)CC2)n1 [NCGC00430734-01] | – |
| 0.32 | -32.94 | -1.2 | COC(=O)c1ccc2nc(CO[C@H]3CN(C(C)=O)C[C@H]3F)[nH]c2c1 [NCGC00392964-01] | – |
| 2 | -64.54 | -1.2 | O=C(NCc1ccc(F)cc1)c1csc(N2CCN(c3ccccc3F)CC2)n1 [NCGC00430726-01] | – |
| 0.89 | – | – | COc1ccc(NC2CCCN(C(=O)c3cn(CCCN)nn3)C2)cc1 (stereo not drawn) [NCGC00439852-01] | Efficacy ([2]; Table S1, primary screen): -61.76; CC-v2 [2, 4]: -1.2 |
| 0.25 | -27.44 | -1.4 | COc1ccc(N2CCN(c3nc(C(=O)NCC4CCCCC4)cs3)CC2)cc1 [NCGC00430670-01] | – |
| 35.5 | – | – | NC(=O)[C@H](Cc1ccc(O)cc1)NC(=O)[C@@]1(O)C[C@@H](O)[C@H](O)[C@@H](NC(=O)c2ccc(F)c(Cl)c2)C1 [NCGC00398197-01] | Efficacy ([2]; Table S1, primary screen): -17.95; CC-v2 [2, 4]: -2.4 |
| 2.51 | – | – | CCOc1ccc(C(=O)NC2CCN(c3cc(-c4ccc(OC)cc4)n[nH]3)C2)cc1OCC (stereo not drawn) [NCGC00438182-01] | Efficacy ([2]; Table S1, primary screen): -29.34; CC-v2 [2, 4]: -1.4 |
| 22.4 | -46.23 | -2.2 | COc1ccc(-n2nc(C)c([C@@H]3C=C[C@@H](NCc4cccc(Cl)c4)C3)c2C)cc1 [NCGC00391691-01] | – |
| 12.6 | -91.30 | -2.2 | Cc1nn(-c2ccc(C(C)C)cc2)c(C)c1[C@@H]1C=C[C@@H](NCc2ccc(F)cc2)C1 [NCGC00401594-01] | – |
| 14.1 | -101.87 | -2.1 | Cc1ccc(-n2nc(C)c([C@@H]3C=C[C@@H](NCc4ccc(N(C)C)cc4)C3)c2C)cc1Cl [NCGC00395823-01] | – |
| 15.8 | -69.78 | -2.4 | COc1ccc(CN2C[C@@H](F)[C@@H](OCc3nc4cnccc4[nH]3)C2)cc1 [NCGC00391075-01] | – |
| 5.62 | – | – | O=C(Nc1ccc2c(c1)OCCO2)N1CCC(Cc2nnc(-c3ccncc3)[nH]2)C1 (stereo not drawn) [NCGC00438506-01] | Efficacy ([2]; Table S1, primary screen): -41.70; CC-v2 [2, 4]: -2.4 |

| AC50 [2] [µM] | Efficacy ([2]; Table S2, in-house analogs) | CC-v2 [2, 5] | SMILES | further results |
| --- | --- | --- | --- | --- |
| 0.45 | -92.90 | -1.1 | Fc1ccc2[nH]c(CO[C@H]3CN(Cc4ccc5ccccc5n4)C[C@H]3F)nc2c1 [NCGC00393065-01] | – |
| 28.2 | -62.15 | -2.2 | Cc1nn(CCC#N)c(C)c1[C@@H]1C=C[C@@H](NC(=O)Nc2ccc(Cl)cc2)C1 [NCGC00399959-01] | – |
| 28.2 | -67.89 | -3 | COC(=O)c1ccc2nc(CO[C@H]3CN(C(=O)C4CCOCC4)C[C@H]3F)[nH]c2c1 [NCGC00392526-01] | – |
| 28.2 | -77.64 | -2.2 | CC(=O)Nc1cccc(-c2cc(C(=O)NCc3cnn(C)c3)c3c(c2)N(C)CCO3)c1 [NCGC00417085-01] | – |
| 2.51 | -72.54 | -1.2 | COc1cccc(N2CCN(c3nc(C(=O)NCc4cccc(C)c4)cs3)CC2)c1 [Compound 2] | – |
| 28.2 | -62.94 | -2.2 | COC(=O)c1ccc2nc(CO[C@H]3CN(Cc4ccc(C(F)(F)F)cc4)C[C@H]3F)[nH]c2c1 [NCGC00392986-01] | – |
| 31.6 | – | – | CCCNC(=O)N1CC(Oc2ccc(-c3nc(C)no3)cc2)C1 [NCGC00441061-01] | Efficacy ([2]; Table S1, primary screen): -48.80; CC-v2 [2, 4]: -2.2 |
| 0.79 | -109.85 | -1.1 | COC(=O)c1ccc2nc(CO[C@H]3CN(Cc4ccc5ccccc5n4)C[C@H]3F)[nH]c2c1 [NCGC00391159-01] | – |
| 28.2 | – | – | Cc1cc(C)c(C)c([S+](=O)([O-])NCCC(=O)N2CCc3[nH]c(=O)c(C#N)cc3C2)c1C [NCGC00527311-01] | Efficacy ([2]; Table S1, primary screen): -52.11; CC-v2 [2, 4]: -2.2 |
| 12.6 | -75.42 | -2.2 | COc1cccc(N2CCN(c3nc(C(=O)NCc4ccncc4)cs3)CC2)c1 [NCGC00430686-01] | – |
| 15.8 | – | – | COCc1nc(N2CCC(Cn3cccn3)CC2)cc([C@H]2C[C@H](N)C2)n1 [NCGC00422389-01] | Efficacy ([2]; Table S1, primary screen): -81.78; CC-v2 [2, 4]: -3 |
| 2.82 | -45.69 | -1.2 | COc1cccc(N2CCN(c3nc(C(=O)NCc4ccccc4F)cs3)CC2)c1 [NCGC00430688-01] | – |
| 2 | -75.40 | -1.2 | O=C(NCc1ccccc1)c1csc(N2CCN(c3ccc(Cl)cc3)CC2)n1 [NCGC00430698-01] | – |
| 22.4 | -83.17 | -2.2 | Cc1nn(Cc2ccccc2)c(C)c1[C@@H]1C=C[C@@H](NC(=O)Nc2ccccc2)C1 [NCGC00400191-01] | – |
| 28.2 | – | – | COc1cccc(NC(=O)O[C@@H]2CO[C@H]3[C@@H]2OC[C@@H]3Nc2nccc(-c3ccccc3)n2)c1 [NCGC00398388-01] | Efficacy ([2]; Table S1, primary screen): -30.64; CC-v2 [2, 4]: -2.4 |
| 28.2 | – | – | COCCNC(=O)c1ccc2c(c1)N(C)C(CC(=O)NCC(C)C)CO2 (stereo not drawn) [NCGC00429361-01] | Efficacy ([2]; Table S1, primary screen): -36.95; CC-v2 [2, 4]: -3 |
| 0.63 | -48.22 | -1.2 | CN1CCOc2c(C(=O)NCCC(N)=O)cc(-c3ccccc3O)cc21 [NCGC00417061-01] | – |
| 14.1 | – | – | COc1ccc(CNc2cc3c(cn2)CN(Cc2ccccc2)CCN3)cc1OC [NCGC00411020-01] | Efficacy ([2]; Table S1, primary screen): -49.01; CC-v2 [2, 4]: -2.2 |
| 12.6 | -37.26 | -2.2 | Cc1nn(-c2ccc(C(F)(F)F)cc2)c(C)c1[C@@H]1C=C[C@@H](NCc2ccc(N(C)C)cc2)C1 [NCGC00392637-01] | – |
| 20 | – | – | C[S+](=O)([O-])c1ccc(N2CCN(CC3(O)CNCCOC3)CC2)c(F)c1 (stereo not drawn) [NCGC00435271-01] | Efficacy ([2]; Table S1, primary screen): -66.49; CC-v2 [2, 4]: -3 |
| 28.2 | -105.83 | -2.1 | COc1ccc(-n2nc(C)c([C@@H]3C=C[C@@H](NCc4ccc(N(C)C)cc4)C3)c2C)cc1 [NCGC00394616-01] | – |

| SMILES | AC50 [2] [µM] | Efficacy ([2]; Table S2, in-house analogs) | CC-v2 [2, 5] | further results |
| --- | --- | --- | --- | --- |
| CN(C)CC1(O)CCN(C(=O)Cn2cc(C(=O)C3CC3)c3ccccc32)C1 (stereo not drawn) [NCGC00438461-01] | 35.5 | – | – | Efficacy ([2]; Table S1, primary screen): -41.61; CC-v2 [2, 4]: -2.4 |
